Entries after “also recorded” stand apart in the source; their conditions may differ.

The target in series [1] is T1, human P2X7 receptor (Homo sapiens, UniProt Q99572).
T1 construct: expressed in transfected cells
T1 sequence (Q99572 1-595): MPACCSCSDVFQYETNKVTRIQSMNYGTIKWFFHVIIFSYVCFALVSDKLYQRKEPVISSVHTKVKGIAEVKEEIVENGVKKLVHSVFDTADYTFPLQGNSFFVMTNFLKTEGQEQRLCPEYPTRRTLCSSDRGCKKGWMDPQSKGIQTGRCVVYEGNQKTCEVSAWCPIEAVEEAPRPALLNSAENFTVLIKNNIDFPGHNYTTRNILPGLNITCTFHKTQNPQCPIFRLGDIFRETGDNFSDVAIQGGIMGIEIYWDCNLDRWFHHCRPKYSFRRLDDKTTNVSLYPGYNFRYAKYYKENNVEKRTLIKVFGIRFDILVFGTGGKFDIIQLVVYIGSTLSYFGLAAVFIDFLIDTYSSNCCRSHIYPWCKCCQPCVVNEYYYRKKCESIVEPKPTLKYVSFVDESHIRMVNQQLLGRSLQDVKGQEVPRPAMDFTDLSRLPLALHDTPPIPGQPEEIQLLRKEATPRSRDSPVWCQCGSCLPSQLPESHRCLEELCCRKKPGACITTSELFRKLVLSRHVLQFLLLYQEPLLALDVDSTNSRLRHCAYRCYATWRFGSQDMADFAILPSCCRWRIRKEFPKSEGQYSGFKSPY
Briefly: bzATP-induced YO-PRO-1 dye uptake in HEK293 cells stably expressing the human P2X7 receptor. It counts as cell-based. The source says:
Finally, P2X7 activation is associated with the formation of a large pore that is permeable to molecules of up to ˜1000 Da (Adinolfi et al., 2005; Cheewatrakoolpong et al., 2005; Surprenant et al., 1996).

Series [2] deals with Caspase-1. In words: Western blot of Caspase-1 activation in primary human RPE cells transfected with Alu RNA. It counts as cell-based. Conditions: for Caspase-1 maturation caused by Alu RNA: 24 hours after Alu administration, 50-100 uM, FIG. 7; for Caspase-1 activation / cleavage (p20) induced by Alu RNA: concentration not given. How it is done:
The bottom row is a vinculin loading control. […]
FIG. 7 is a Western blot showing that Alu RNA causes Caspase-1 maturation in primary human RPE cells at 24 hours after Alu administration (top, middle lane, lower band), which is blocked with co-treatment with azidothymidine (AZT), cordycepin, and abacavir (ABC) (50-100 uM; lanes 3-8 from left). The loading control vinculin is shown on the bottom.
FIG. 21 is a Western blot of Caspase-1 activation (p20 subunit) in primary human RPE cells transfected with Alu RNA±me-d4T.
FIG. 35 is a Western blot of Caspase-1 activation in human RPE cells transfected with Alu RNA±NRTIs (3TC, AZT, ABC).
The bottom row in FIG. 5 is a vinculin loading control. […]
Next, FIG. 7 provides evidence of AZT, cordycepin, and abacavir inhibition of inflammasome activation by Alu RNA. Indeed, Alu RNA causes NLRP3 inflammasome activation, which is marked by processing of the enzyme Caspase 1. FIG. 7 is a Western blot showing that Alu RNA causes Caspase-1 maturation in primary human RPE cells at 24 hours after Alu administration (top, lane 2, lower band), which is blocked with co-treatment with azidothymidine (AZT), cordycepin, and abacavir (ABC) (50-100 uM; Lanes 3-8). Again, the loading control vinculin is shown on the bottom.
For orientation: A western blot detects proteins with antibodies after separation by electrophoresis.

The test system of series [3] is RPE degeneration. Briefly: RPE degeneration in mice after sub-retinal injection of a plasmid expressing Alu RNA, systemic drug administration. It counts as in vivo, mouse.
From the text: FIG. 24, top row, provides flat mounts stained for zonula occludens-1 (ZO-1; red), bottom row. Degeneration is outlined if FIG. 24 by blue arrowheads. Representative images of n=4 are shown.
FIG. 36 and FIG. 37 include fundus photographs: top row; flat mounts stained for zonula occludens-1 (ZO-1; red), bottom row. Degeneration is outlined by blue arrowheads. Scale bars, 50 μm.
The test system of series [4] is Raji TK^+ and Raji TK^− cells. In words: Phosphorylation of AZT to AZT-triphosphate in Raji TK+ and TK- cells (LC-MS). The format is in vitro ADME. Conditions: FIG. 40, 50. The source says: FIG. 50 is a standard curve of AZT-TP standards (black circle).
(§1) To determine whether LPS/ATP-induced inflammasome activation can be inhibited without RT inhibition, the present inventors utilized thymidine kinase-deficient (Raji/TK^−) and -expressing (Raji/TK^+) cells (Balzarini et al., 1989). After addition of AZT, […], but not TK^− cells, the present inventors produced AZT-triphosphate (AZT-TP), the AZT metabolite required for RT inhibition (FIG. 40; FIG. 46, FIG. 47, FIG. 48, FIG. 49, FIG. 50).
FIG. 50 is a standard curve of AZT-TP standards (black circle). […] FIG. 50 is representative of two experiments.

The subject of series [5] is IL-1 beta. In words: LPS/ATP-induced IL-1 beta activation in Raji TK- and TK+ cells (Western blot of cell lysates). The following applies: FIG. 41. The format is cell-based.
From the text: as §1
(§2) FIGS. 38-41 illustrate that NRTIs block LPS/ATP-induced inflammasome activation. […] Representative images of n=3-4 experiments are provided in each of FIGS. 38-41.

Series [6] relates to IL-18. Briefly: LPS/ATP-induced IL-18 maturation in mouse bone marrow-derived macrophages (Western blot). It counts as cell-based. Conditions: supernatants, 100 uM, FIG. 9. The source says: (§3) To produce FIG. 9, cell culture supernatants were collected after (i) no treatment, (ii) LPS treatment, or (iii) LPS/ATP treatment of mouse bone marrow-derived macrophages and run on Western blotting probing with antibodies for Caspase-1 and IL-18.

Series [7] concerns Caspase-1. Briefly: LPS/ATP-induced Caspase-1 activation in mouse bone marrow-derived macrophages (Western blot). It counts as cell-based. Conditions: mouse bone marrow-derived macrophages, supernatants; 100 uM; FIG. 9.
From the text: as §3
Further, the present inventors also tested whether NRTIs blocked inflammasome activation by LPS/ATP, which is not known to signal via reverse transcriptase (Mariathasan et al., 2004; Mariathasan et al., 2006; Martinon et al., 2002).
as §2

Series [8] deals with IL-1 beta. Briefly: MSU-induced IL-1 beta secretion from PMA-differentiated THP-1 monocytes (ELISA). The format is cell-based, human. Conditions: co-administration at 25-1000 uM, FIG. 11, 12. The source says:
Human THP-1 monocytes were differentiated into macrophages with PMA.
To illustrate this, human THP-1 monocytes were differentiated into macrophages with PMA. Treatment with MSU increased IL-1 beta secretion compared to non-treated cells.
A general note: An ELISA detects its analyte on a solid surface through an enzyme-linked reagent.

The subject of series [9] is GFP-expressing lentivirus. Briefly: Replication of a GFP-expressing lentivirus in HeLa cells. The format is cell-based. The following applies: FIG. 22. The source says: The present disclosure further provides the results of additional experiments in FIG. 21-FIG. 23.

`Clc1cccc(-c2nnnn2Cc2cccnc2)c1Cl` [A438079]: the “P2X7-mediated YO-PRO-1 dye uptake (fluorescence) induced by bzATP” value in series [1] (bzATP 100 μM, 64 μM for both drugs, p<0.05, n=12, FIG. 43) is reported as “inhibited”.

In the case of `Cc1cn([C@H]2C[C@H](N=[N+]=[N-])[C@@H](CO)O2)c(=O)[nH]c1=O` [AZT, 3′-azido-2′,3′-dideoxythymidine], in [2], the “Caspase-1 maturation caused by Alu RNA” value was “blocked”. Besides, the “Caspase-1 activation / cleavage (p20) induced by Alu RNA” value (“Caspase-1 activation / cleavage” below) in [2] (FIG. 21, 34, 35, 51-53) was “block Caspase 1 activation by Alu RNA; also recorded: block Caspase-1 cleavage induced by Alu RNA”. For the same molecule, the “P2X7-dependent uptake of YO-PRO1 after addition of bzATP” value in [1] (human P2X7-overexpressing HEK293 stable cell line, concentration not given) is “inhibited P2X7-dependent uptake of the fluorescent dye YO-PRO1”. The “RPE degeneration caused by pAlu” value in series [3] (intraperitoneal administration of AZT, FIG. 37) is recorded as “prevent RPE degeneration; also recorded: prevented”. Besides, the “Phosphorylation of AZT to AZT-triphosphate (AZT-TP)” value was “produced AZT-TP; also recorded: phosphorylate AZT to AZT-triphosphate (AZT-TP)” in series [4] (Raji TK^+ cells) and “is not phosphorylated; also recorded: AZT was not phosphorylated; also recorded: AZT-TP was not detectable; also recorded: but not Raji TK^− cells” in series [4] (Raji TK^− (thymidine kinase-deficient) cells). For the same molecule, the “IL-1 beta activation by LPS/ATP” value is “blocks IL-1 beta activation” in series [5] (Raji TK^+ cells) and “still blocks LPS/ATP-induced interleukin-1 beta secretion; also recorded: still inhibited LPS/ATP-induced interleukin-1 beta maturation; also recorded: blocks IL-1 beta activation” in [5] (Raji TK^− cells).

Turning to `Clc1ccc(C(c2ccc(Cl)cc2)n2cc[n+](CC(OCc3ccc(Cl)cc3Cl)c3ccc(Cl)cc3Cl)c2)cc1` (stereo not shown) [calmidazolium], the “Caspase-1 activation / cleavage” value in series [2] (FIG. 21, 34, 35, 51-53) is on record as “not inhibited”.

On to `Nc1ncnc2c1ncn2[C@@H]1O[C@H](CO)C[C@H]1O` [cordycepin], for which, in series [2], the “Caspase-1 maturation caused by Alu RNA” value was “blocked”. For the same molecule, the “IL-18 maturation induced by LPS/ATP” value in series [6] is given as “inhibit”. The “Caspase-1 activation (active p20 band) induced by LPS/ATP” value in series [7] was “inhibit”. Besides, the “IL-1 beta secretion induced by MSU” value in [8] was “did not significantly affect IL-1beta secretion”.

For `COC[C@@H]1C=C[C@H](n2cc(C)c(=O)[nH]c2=O)O1` [me-d4T, 5′-OCH3-d4T], the “Caspase-1 activation / cleavage” value in series [2] (FIG. 21, 34, 35, 51-53) is given as “blocks Caspase-1 activation in human RPE cells”; in series [2] (FIG. 21, 34, 35, 51-53, listed as 5′-methoxy-d4T), “block Caspase 1 activation by Alu RNA”. The “Alu-induced RPE degeneration” value in series [3] (me-d4T intraperitoneal injection, n=4, FIG. 24) is “prevents Alu-induced RPE degeneration in mice”. For the same molecule, the “Replication of a GFP-expressing lentivirus” value in [9] (HeLa cells) is reported as “does not block lentivirus replication”. Also, in series [9] (confirmed by lentivirus replication), the Reverse transcriptase inhibition entry is listed as “does not inhibit reverse transcriptase”.
